This passage reports inhibition and Kp results from patent publication US20120245154A1, “SUBSTITUTED AMINOTHIAZINE DERIVATIVE” (SHIONOGI & CO., LTD., priority 2009, published 2012).

The target in one data set is T1, hERG channel (IKr) (Homo sapiens, UniProt Q12809).
T1 construct: expressed in transfected cells; host or cells: HEK293
Briefly: hERG test. As to conditions: HEK293 cells expressing hERG channel, pH 7.4, whole cell patch clamp, concentration not given, read-out: % inhibition relative to the tail peak current (IKr). The class given is cell-based. From the text: For the purpose of assessing risk of an electrocardiogram QT interval prolongation, effects on delayed rectifier K+ current (IKr), which plays an important role in the ventricular repolarization process, was studied using HEK293 cells expressing human ether-a-go-go related gene (hERG) channel.
After a cell was retained at a membrane potential of −80 mV by whole cell patch clamp method using an automated patch clamp system (PatchXpress 7000A, Axon Instruments Inc.), IKr induced by depolarization pulse stimulation at +50 mV for 2 seconds and, further, repolarization pulse stimulation at −50 mV for 2 seconds was recorded. […] From the recording IKr, an absolute value of the tail peak current was measured based on the current value at the resting membrane potential using an analysis software (DataXpress vet.1, Molecular Devices Corporation). Further, the % inhibition relative to the tail peak current before application of the test substance was calculated, and compared with the vehicle-applied group (0.1% dimethyl sulfoxide solution) to assess influence of the test substance on IKr.
(In general: The hERG channel carries a current that helps repolarise heart muscle cells.)

Data set [1] can be described thus: Brain distribution studies. In kind it is in vivo. The settings on record: brain/plasma, iv; rat, intravenously 0.5 mg/mL/kg, 30 minutes later; read-out: brain Kp value (area ratio brain/plasma). Here is the method: Compound of the present invention was intravenously administered to a rat at 0.5 mg/mL/kg dosage. […] The brain was enucleated and 20-25% of homogenate thereof was prepared with distilled water. The obtained blood was used as plasma after centrifuging. To the brain sample was added the control plasma at 1:1. To the plasma samples was added the control brains at 1:1. Each sample was measured using LC/MS/MS. The obtained area ratio (a brain/plasma) was used for the brain Kp value.

T1 sequence (Q12809 whole entry): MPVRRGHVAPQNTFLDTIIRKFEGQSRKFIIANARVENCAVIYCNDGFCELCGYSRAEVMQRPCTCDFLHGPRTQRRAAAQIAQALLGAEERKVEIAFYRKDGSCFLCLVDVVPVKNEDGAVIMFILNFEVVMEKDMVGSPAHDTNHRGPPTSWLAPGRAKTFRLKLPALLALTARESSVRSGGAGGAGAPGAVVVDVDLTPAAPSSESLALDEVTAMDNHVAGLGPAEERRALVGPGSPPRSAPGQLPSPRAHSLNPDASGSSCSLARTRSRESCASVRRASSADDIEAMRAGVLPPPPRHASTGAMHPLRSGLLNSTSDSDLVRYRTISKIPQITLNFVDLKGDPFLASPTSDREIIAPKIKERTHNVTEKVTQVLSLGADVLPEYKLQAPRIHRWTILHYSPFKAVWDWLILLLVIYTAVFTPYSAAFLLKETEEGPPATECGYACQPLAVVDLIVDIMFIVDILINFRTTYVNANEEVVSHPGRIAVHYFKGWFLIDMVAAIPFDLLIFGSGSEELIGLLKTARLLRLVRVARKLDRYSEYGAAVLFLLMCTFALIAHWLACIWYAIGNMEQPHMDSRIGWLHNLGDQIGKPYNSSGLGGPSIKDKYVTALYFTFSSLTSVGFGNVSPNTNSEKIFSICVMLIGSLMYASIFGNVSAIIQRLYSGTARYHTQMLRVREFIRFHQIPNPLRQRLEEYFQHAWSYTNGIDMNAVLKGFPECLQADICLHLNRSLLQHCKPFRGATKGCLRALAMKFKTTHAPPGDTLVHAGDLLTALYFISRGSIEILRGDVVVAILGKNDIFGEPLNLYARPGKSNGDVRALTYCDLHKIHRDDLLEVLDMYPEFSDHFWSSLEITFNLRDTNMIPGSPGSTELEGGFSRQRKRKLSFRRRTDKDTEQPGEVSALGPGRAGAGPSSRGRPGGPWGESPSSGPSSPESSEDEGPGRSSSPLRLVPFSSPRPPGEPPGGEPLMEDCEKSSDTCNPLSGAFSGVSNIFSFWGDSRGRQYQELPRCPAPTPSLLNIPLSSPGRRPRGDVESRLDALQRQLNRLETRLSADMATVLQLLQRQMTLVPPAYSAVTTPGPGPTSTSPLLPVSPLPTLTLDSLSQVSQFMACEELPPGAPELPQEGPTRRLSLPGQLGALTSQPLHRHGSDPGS

In general, inhibition refers to the drop in the measured response relative to a control, in per cent. Take `Cc1cnc(C(=O)Nc2ccc(F)c([C@]3(C)C=C(C(F)F)SC(N)=N3)c2)cn1` [Compound I-14]: the inhibition at 10 min at hERG channel (IKr) came out at 3.8%. For `CC(C)C1=C[C@@](C)(c2cc(NC(=O)c3ccc(C#N)cn3)ccc2F)N=C(N)S1` [Compound I-54], the Kp at 0.5 h in data set [1] is 2.5.
